Where two headings read alike, the source gives them in different places.
Experiments:
[1] = test system: Staphylococcus epidermidis; test: Antibacterial susceptibility testing (MIC/MBC), S. epidermidis; assay type: cell-based; conditions: Staphylococcus epidermidis
Description: (§1) Minimal inhibitory concentrations (MICs) were determined following a standard double-dilution method. […] For S. pneumoniae MICs were determined by adapting the standard double-dilution method to anaerobic conditions and of this microorganism (use of Todd Hewitt Yeast extract with 200 U/mL of catalase and continuous monitoring of growth).

Escherichia coli = test: Antibacterial susceptibility testing (MIC/MBC), E. coli; assay type: cell-based; conditions: Escherichia coli, read-out: MIC E. coli CFT 073
Description: as §1

S. aureus PhoR (PhoR^S) = S. aureus PhoR (PhoR^S) (Staphylococcus aureus, UniProt Q2FXN7); test: In vitro autophosphorylation kinase assay with γ-32P-ATP, PhoR^S; assay type: biochemical; conditions: for IC50: autophosphorylation, one time point (30 sec), 10% DMSO; for inhibition at 2000 µM: read-out: inhibition of PhoR^S autophosphorylation
Sequence of S. aureus PhoR (PhoR^S) (Q2FXN7 entry or part of it): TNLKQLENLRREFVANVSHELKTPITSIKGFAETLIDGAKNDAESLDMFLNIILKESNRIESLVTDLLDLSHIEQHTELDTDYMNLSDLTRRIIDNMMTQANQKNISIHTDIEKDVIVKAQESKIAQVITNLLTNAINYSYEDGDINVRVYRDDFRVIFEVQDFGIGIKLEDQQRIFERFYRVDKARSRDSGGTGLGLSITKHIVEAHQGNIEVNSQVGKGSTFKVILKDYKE
Description: (§2) To evaluate the inhibitory capacity of selected hits from DSF, SBVS and LBSS in vitro autophosphorylation kinase assays with γ-^32P-ATP were performed as previously described. Ligands were dissolved in 100% DMSO. […] Controls lacking ligands contained an equal concentration of DMSO. Inhibition of autophosphorylation was determined by incubating 0.12 mg/ml (≈4 μM) HK and up to 20 mM fragment in kinase buffer (50 mM Tris HCl, pH 8.5, 50 mM KCl, 5 mM MgCl2, 0.5 mM EDTA and 0.1 mM DTT). Autophosporylation reactions were initiated by addition of 0.1 μCi/μl γ-^32P-ATP containing from 0.03 to 0.06 μM ATP (final concentrations). Autophosphorylation was quenched with 2xSDS-PAGE sample buffer supplemented with 50 mM EDTA. Samples were applied without heating to 15% (w/v) Tris-glycine SDS-polyacrylamide gels. After electrophoresis, the bottoms of the gels were removed to lower the background from the unincorporated radiolabeled ATP. Gels were dried without staining on a Bio-Rad Gel Air drying system and the phosphorylated protein was quantified by phosphor-imaging. Prism GraphPad was used for curve fitting and statistical analysis.

Staphylococcus aureus = test: Antibacterial susceptibility testing (MIC/MBC), S. aureus; assay type: cell-based; conditions: Staphylococcus aureus
Description: as §1

E. coli PhoR (PhoR^E) = molecular target: T1, E. coli PhoR (PhoR^E) (Escherichia coli, UniProt P08400); test: In vitro autophosphorylation kinase assay with γ-32P-ATP, PhoR^E; assay type: biochemical; conditions: for IC50: autophosphorylation, one time point (30 sec), 10% DMSO; for inhibition at 2000 µM: 2 mM, 30 sec, compared to negative control
T1 construct: The catalytic portion (DHp and CA domain) of E. coli PhoR (PhoR^E); made in house; host or cells: E. coli RIL
T1 sequence (P08400 210-425): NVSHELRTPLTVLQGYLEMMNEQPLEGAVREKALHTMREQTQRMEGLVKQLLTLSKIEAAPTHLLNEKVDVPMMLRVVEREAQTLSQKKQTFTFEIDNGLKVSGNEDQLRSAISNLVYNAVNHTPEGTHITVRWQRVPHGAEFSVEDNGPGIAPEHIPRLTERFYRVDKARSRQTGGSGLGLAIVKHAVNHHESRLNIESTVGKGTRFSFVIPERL
Description: as §2, with “Samples were applied without heating to 15% (w/v) Tris-glycine SDS-polyacrylamide gels.” left out

[2] = DSM20044, strain DSM 20044, read-out: MIC S. epidermidis DSM 20044
[3] = DSM20231, strain DSM 20231, read-out: MIC S. aureus DSM 20231

SMILES | MIC [1, 2] [µg/mL] | MIC (Escherichia coli; strain CFT 073) [µg/mL] | IC50 (S. aureus PhoR (PhoR^S); IC50 PhoR^S) [µM] | MIC (Staphylococcus aureus; [3]) [µg/mL] | IC50 (E. coli PhoR (PhoR^E); IC50 PhoR^E) [µM] | IC50 (S. aureus PhoR (PhoR^S); read-out: IC50 PhoR^S) [µM] | inhibition at 2000 µM (S. aureus PhoR (PhoR^S)) [%] | inhibition at 2000 µM (E. coli PhoR (PhoR^E)) [%] | MIC ([1]; DSM20044, read-out: MIC S. epidermidis DSM 20044) [µg/mL] | MIC (Escherichia coli) [µg/mL] | MIC (Staphylococcus aureus; DSM20231, read-out: MIC S. aureus DSM 20231) [µg/mL] | IC50 (E. coli PhoR (PhoR^E); read-out: IC50 PhoR^E) [µM]
CCN(Cc1ccc(C(=O)OC)cc1)c1cccc(NC(C)=O)c1 [S1.1] | > 500 | > 500 | > 2000 | > 500 | > 2000 | – | – | – | – | – | – | –
CC(=O)Nc1ccc(-c2ccc(F)cc2)cc1 [S1.2] | > 500 | > 500 | – | > 500 | < 2000 | < 2000 | > 75 | > 75 | – | – | – | –
CC(=O)Nc1ccc(NC(=O)c2cccc(F)c2)cc1 [S1.3] | > 500 | > 500 | > 2000 | > 500 | > 2000 | – | – | – | – | – | – | –
CC(=O)Nc1cccc(Cc2cccc(NC(C)=O)c2)c1 [S1.4] | > 500 | > 500 | > 2000 | > 500 | > 2000 | – | – | – | – | – | – | –
CC(=O)Nc1ccc[n+](CC(=O)c2ccc(F)cc2)c1 [S1.5] | > 500 | > 500 | > 2000 | > 500 | > 2000 | – | – | – | – | – | – | –
CC(=O)Nc1ccc(C(O)c2ccc(NC(C)=O)cc2)cc1 [S1.6] | > 500 | > 500 | > 2000 | > 500 | > 2000 | – | – | – | – | – | – | –
CC(=O)Nc1cccc(OCc2ccc([N+](=O)[O-])cc2)c1 [S1.8] | > 500 | > 500 | > 2000 | > 500 | > 2000 | – | – | – | – | – | – | –
CC(=O)Nc1cccc(S(=O)(=O)c2cccc(NC(C)=O)c2)c1 [S1.9] | > 500 | > 500 | > 2000 | > 500 | > 2000 | – | – | – | – | – | – | –
CC(=O)Nc1ccc2c(c1)C(=Nc1ccc(F)cc1)c1ccccc1-2 [S1.10] | > 500 | > 500 | > 2000 | > 500 | > 2000 | – | – | – | – | – | – | –
CC(=O)Nc1cccc(C=Cc2ccc([N+](=O)[O-])cc2)c1 [S1.11] | > 500 | > 500 | – | > 500 | < 2000 | < 2000 | > 75 | > 75 | – | – | – | –
CC(=O)Nc1ccc(C(=O)C(O)c2ccc(NC(C)=O)cc2)cc1 (stereo not shown) [S1.12] | > 500 | > 500 | > 2000 | > 500 | > 2000 | – | – | – | – | – | – | –
CC(C)(C)c1ccc(NS(=O)(=O)c2ccc(N)cc2)cc1 [S1.15] | > 500 | > 500 | – | > 500 | > 2000 | < 2000 | > 75 | > 40 | – | – | – | –
CC(=O)Nc1cccc(OCOc2ccc([N+](=O)[O-])cc2)c1 [S1.16] | > 500 | > 500 | > 2000 | > 500 | > 2000 | – | – | – | – | – | – | –
CC(=O)Nc1cccc(OCc2cccc([N+](=O)[O-])c2)c1 [S1.17] | > 500 | > 500 | > 2000 | > 500 | > 2000 | – | – | – | – | – | – | –
COc1cc(NCc2ccccc2)ccc1NC(C)=O [S1.18] | > 500 | > 500 | > 2000 | > 500 | > 2000 | – | – | – | – | – | – | –
CC(=O)NC(Cc1ccccc1)C(=O)Nc1cccc(C)c1 (stereo not shown) [S1.19] | > 500 | > 500 | > 2000 | > 500 | > 2000 | – | – | – | – | – | – | –
CC(=O)Nc1ccc2c(c1)Cc1cc(Br)ccc1-2 [S1.20] | – | – | > 2000 | – | – | – | – | – | > 500 | > 500 | > 500 | > 2000
O=C(NCc1cccc(Cl)c1)Nc1ccccc1 [S1.22] | > 500 | > 500 | > 2000 | > 500 | > 2000 | – | – | – | – | – | – | –
CCC(c1cccc(Br)c1)C(C(C)=O)c1ccc(OC)cc1 (stereo not shown) [S1.23] | > 500 | > 500 | > 2000 | > 500 | > 2000 | – | – | – | – | – | – | –
CCn1c2ccccc2c2cc(NC(C)=O)ccc21 [S1.24] | > 500 | > 500 | > 2000 | > 500 | > 2000 | – | – | – | – | – | – | –

— article PMC4865847, “Putative histidine kinase inhibitors with antibacterial effect against multi-drug resistant clinical isolates identified by in vitro and in silico screens” (Scientific Reports, 2016)
